Reference: BindingDB's records for doi:10.7270/Q2QR4VH9 (University of Pittsburgh, 2006)

Target: T1, Dual specificity protein phosphatase 1 (Homo sapiens, UniProt P28562)
T1 sequence (P28562 whole entry): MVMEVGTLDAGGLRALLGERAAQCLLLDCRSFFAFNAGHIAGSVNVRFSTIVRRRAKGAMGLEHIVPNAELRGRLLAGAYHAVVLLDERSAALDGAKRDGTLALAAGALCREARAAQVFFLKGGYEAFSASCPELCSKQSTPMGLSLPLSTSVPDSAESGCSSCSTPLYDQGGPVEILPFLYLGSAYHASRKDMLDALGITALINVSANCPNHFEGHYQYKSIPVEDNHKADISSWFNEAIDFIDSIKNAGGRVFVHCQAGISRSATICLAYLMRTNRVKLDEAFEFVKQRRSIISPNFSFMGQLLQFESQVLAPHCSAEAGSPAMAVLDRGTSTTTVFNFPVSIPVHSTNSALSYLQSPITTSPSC
Test: MKP-1 phosphatase inhibitors, repeat potency, dose response, biochemical, reproducibility testing, probe assessment (AID 563)

| Structure (SMILES) | IC50 |
| --- | --- |
| O=C(Nc1ccc2nc(-c3ccco3)c(-c3ccco3)nc2c1)N1CCCCCC1 | 26 µM |
| CCCCCC#CCC#CCC#CCC#CCCCC(=O)O | 12.1 µM |
| Cn1ncnc2c(=O)n(C)c(=O)nc1-2 | 0.743 µM |
| [O-]/[N+](=C\c1ccncc1)c1ccccc1 | > 50 µM |
| O=C1C=Cc2ccccc2C1=O [1,2-dihydronaphthalene-1,2-dione] | 36.4 µM |
| Cc1nc2cc(-c3cccc(F)c3)nn2c(C)c1CCC(=O)N1CCC2(CC1)OCCO2 [1-(1,4-dioxa-8-azaspiro[4.5]decan-8-yl)-3-[2-(3-fluorophenyl)-5,7-dimethyl-6-pyrazolo[1,5-a]pyrimidinyl]-1-propanone] | > 50 µM |
| CCn1nc(-c2ccccc2)nc2c(=O)n(C)c(=O)nc1-2 [1-Ethyl-6-methyl-3-phenyl-1H-pyrimido[5,4-e][1,2,4]triazine-5,7-dione] | 1.19 µM |
| Cc1cc(C)n2c(SCC(=O)N3CCN(S(=O)(=O)c4ccc(Cl)cc4)CC3)nnc2n1 [1-[4-(4-chlorophenyl)sulfonyl-1-piperazinyl]-2-[(5,7-dimethyl-[1,2,4]triazolo[4,3-a]pyrimidin-3-yl)thio]ethanone] | 48.8 µM |
| [O-]/[N+](=C\c1ccc(OC(F)F)cc1)c1ccccc1 [1-[4-(difluoromethoxy)phenyl]-N-phenylmethanimine oxide] | > 50 µM |
| CCCCn1c(SCC(=O)c2ccc(OC)cc2OC)nc2cc(S(N)(=O)=O)ccc21 [1-butyl-2-[2-(2,4-dimethoxyphenyl)-2-oxidanylidene-ethyl]sulfanyl-benzimidazole-5-sulfonamide] | 45.6 µM |
| CCn1nc(-c2cccs2)nc2c(=O)n(C)c(=O)nc1-2 [1-ethyl-6-methyl-3-thiophen-2-yl-pyrimido[5,4-e][1,2,4]triazine-5,7-dione] | 1.24 µM |
| O=C(Nc1ccccc1)c1ccc2nc(-c3ccco3)c(-c3ccco3)nc2c1 [2,3-di-2-furyl-N-phenyl-6-quinoxalinecarboxamide] | 35.7 µM |
| CC(C)Cn1c(N)c(C(=O)COC(=O)c2cc(-c3ccco3)nc3ccccc23)c(=O)n(C)c1=O [2-(2-furanyl)-4-quinolinecarboxylic acid [2-[4-amino-1-methyl-3-(2-methylpropyl)-2,6-dioxo-5-pyrimidinyl]-2-oxoethyl] ester] | 24.2 µM |
| CCOc1ccc(-c2cc3nc(C4CCN(C(=O)OC(C)(C)C)CC4)c(C(=O)O)cn3n2)cc1 [2-(4-ethoxyphenyl)-5-[1-[(2-methylpropan-2-yl)oxy-oxomethyl]-4-piperidinyl]-6-pyrazolo[1,5-a]pyrimidinecarboxylic acid] | 30.5 µM |
| COc1ccc(-c2cc3nc(C4CCN(C(=O)OC(C)(C)C)CC4)c(C(=O)O)cn3n2)cc1 [2-(4-methoxyphenyl)-5-[1-[(2-methylpropan-2-yl)oxy-oxomethyl]-4-piperidinyl]-6-pyrazolo[1,5-a]pyrimidinecarboxylic acid] | 33.9 µM |
| Cc1cccc(NC(=O)c2cc(NC(=O)C3CCCCC3C(=O)O)ccc2N2CCCCC2)c1 (stereo not given) [2-({[3-{[(3-methylphenyl)amino]carbonyl}-4-(1-piperidinyl)phenyl]amino}carbonyl)cyclohexanecarboxylic acid] | > 50 µM |
| Cc1ccc(/C=C/C2=Cc3c(sc(NC(=O)CSc4nnc(N)[nH]4)c3C#N)C(C)(C)C2)o1 [2-[(5-azanyl-1H-1,2,4-triazol-3-yl)sulfanyl]-N-[3-cyano-7,7-dimethyl-5-[(E)-2-(5-methylfuran-2-yl)ethenyl]-6H-1-benzothiophen-2-yl]ethanamide] | 17.8 µM |
| CCCCNC(=O)c1c(N)n(CCCOC)c2nc3ccccc3nc12 [2-amino-N-butyl-1-(3-methoxypropyl)-3-pyrrolo[3,2-b]quinoxalinecarboxamide] | 47.1 µM |
| N#Cc1c(N)sc(=S)c2c1CCN(Cc1ccccc1)C2 [3-Amino-7-benzyl-1-thioxo-5,6,7,8-tetrahydro-1H-thiopyrano[3,4-c]pyridine-4-carbonitrile] | 7.34 µM |
| O=C1C=C(NCc2ccc(Cl)c(Cl)c2)CC1 [3-[(3,4-dichlorobenzyl)amino]cyclopent-2-en-1-one] | > 50 µM |
| CCCSc1nnc(NC(=O)c2sc3nc(-c4cccs4)ccc3c2N)s1 [3-amino-N-(5-propylsulfanyl-1,3,4-thiadiazol-2-yl)-6-thiophen-2-ylthieno[2,3-b]pyridine-2-carboxamide] | 21.8 µM |
| O=C1Nc2ccccc2SC(c2ccccc2)C1O (stereo not given) [3-hydroxy-2-phenyl-2,3-dihydro-1,5-benzothiazepin-4(5H)-one] | 33.2 µM |
| CC(C)(C)N1C(=O)Cc2c1nc(N)c1c(N)nc(N3CCCCC3CO)c(C#N)c21 (stereo not given) [5,6-bis(azanyl)-3-tert-butyl-8-[2-(hydroxymethyl)piperidin-1-yl]-2-oxidanylidene-1H-pyrrolo[2,3-c][2,7]naphthyridine-9-carbonitrile] | > 50 µM |
| COc1cc(/C=C(/C#N)c2ccc(F)cc2)ccc1OCc1ccc(C(=O)O)o1 [5-({4-[2-cyano-2-(4-fluorophenyl)vinyl]-2-methoxyphenoxy}methyl)-2-furoic acid] | > 50 µM |
| COc1ccc(Br)cc1C=c1sc2nc(-c3ccco3)nn2c1=O [5-[(5-bromanyl-2-methoxy-phenyl)methylidene]-2-(furan-2-yl)-[1,3]thiazolo[3,2-b][1,2,4]triazol-6-one] | 12.8 µM |

| Structure (SMILES) | IC50 |
| --- | --- |
| CCOc1cc(/C=C(/C#N)c2ccc(F)cc2)ccc1OCc1ccc(C(=O)O)o1 [5-[[4-[(E)-2-cyano-2-(4-fluorophenyl)ethenyl]-2-ethoxyphenoxy]methyl]furan-2-carboxylic acid] | 36.7 µM |
| N#Cc1c(NC(=O)c2ccc(Br)o2)n(-c2ccccc2)c2nc3ccccc3nc12 [5-bromanyl-N-(3-cyano-1-phenyl-pyrrolo[3,2-b]quinoxalin-2-yl)furan-2-carboxamide] | 24.4 µM |
| O=C(c1cccs1)c1no[n+]([O-])c1C(=O)c1cccs1 [(5-oxidanidyl-4-thiophen-2-ylcarbonyl-1,2,5-oxadiazol-5-ium-3-yl)-thiophen-2-yl-methanone] | 6.39 µM |
| Nc1c(N2CCCC2)cc(Cl)c2nonc12 [(7-chloro-5-pyrrolidino-benzofurazan-4-yl)amine] | > 50 µM |
| [O-]/[N+](=C/c1ccc(F)cc1)c1ccccc1 [(E)-(4-fluorobenzylidene)(phenyl)azane oxide] | > 50 µM |
| CC1=C(/C=C/C(C)=C/C=C/C(C)=C/C(=O)O)C(C)(C)CCC1 [ALL-TRANS-RETINOIC ACID] | 42.9 µM |
| CC(=O)[C@@H]1[C@@H]2C(=O)N(c3ccc(F)c(Cl)c3)C(=O)[C@@H]2C2c3ccccc3C=CN21 (stereo not given in full) [MLS000040594] | > 50 µM |
| COCCCn1c(N)c(C(=O)NCCC(C)C)c2nc3ccccc3nc21 [MLS000041744] | > 50 µM |
| CCn1c(SCC(=O)Nc2ccc3c(c2)c2ccccc2n3CC)nnc1-c1ccco1 [MLS000050867] | 20.3 µM |
| O=C1C(=C2C(=O)c3ccccc3C2=O)Nc2ccccc21 [MLS000071738] | > 50 µM |
| COc1ccc(-n2c(NC(=O)c3ccco3)c(C#N)c3nc4ccccc4nc32)cc1 [MLS000079925] | 34.1 µM |
| COc1ccc(Cn2c(C)nc3c(c2=O)c2nc4ccccc4nc2n3Cc2ccco2)cc1 [MLS000079944] | 21.6 µM |
| Nc1nc2c(s1)CCc1c-2cnn1-c1ccccc1 [MLS000085948] | > 50 µM |
| Cc1cc(NC(=O)c2ccc(S(=O)(=O)N3CCCC3)cc2)nc2c1c(=O)oc1ccccc12 [MLS000091355] | 24.9 µM |
| FC(F)(F)c1ccc(N2CCOCC2)c(Nc2nc3ccccc3n3cnnc23)c1 [MLS000093276] | > 50 µM |
| COC(=O)c1ccccc1NC(=O)CN1C(=O)C2CCCN2c2ncc(Cl)cc21 (stereo not given) [MLS000094302] | 46.2 µM |
| CCc1ccc(NC(=O)CSc2nc3ccccc3c(=O)n2CCN2CCOCC2)cc1 [MLS000095236] | > 50 µM |
| Cc1c(N=c2c(=O)c3ccccc3c2=O)c(=O)n(-c2ccccc2)n1C [MLS000105950] | 26.2 µM |
| CCOc1ccc2noc3c2c1C(=O)c1ccccc1-3 [MLS000106837] | > 50 µM |
| COc1ccc2noc3c2c1C(=O)c1ccccc1-3 [MLS000106874] | 46.1 µM |
| O=C(NC1(O)C(=O)c2ccccc2C1=O)c1ccccc1 [N-(2-hydroxy-1,3-dioxo-2-indenyl)benzamide] | 48.2 µM |
| O=C(OC1CCCCC1)c1ccc2c(c1)C1C=CCC1C(C(=O)O)N2 (stereo not given) [SMR000019385] | 14.5 µM |
| O=C1c2ccccc2-c2onc3ccc(NCCCn4ccnc4)c1c23 [SMR000044769] | 27.7 µM |
| CCCCn1c(NC(=O)c2ccccc2)c(C#N)c2nc3ccccc3nc21 [SMR000060333] | 30 µM |
| N#Cc1c(N2CCCC2)nc(N)c2c(N)nc(N3CCCC3)cc12 [SMR000061605] | 18.8 µM |
